Patent US20090298752A1, “APLIDINE TREATMENT OF CANCERS” (PHARMA MAR, S.A., priority 1999, published 2009)
Values joined by “and” are separate entries in the source; they are usually repeats but may differ in a detail not shown here. Equal entries are not always repeated. “Also recorded” adds a separate entry of the source.

Columns and labels:
gastric tumours = conditions: 1.25 mg/kg; cited from earlier work
[1] = Phase I, 24 h infusion weekly x3 q4wk: toxicity and pharmacokinetics; assay type: in vivo, human
Experimental: A phase I trial was performed using 24 hour infusion weekly×3 followed by 1 wk rest. 32 patients (median age 58 yrs, median ECOG 1) with advanced, previously treated solid tumours have been treated. They have received 64 courses (median/pt: 2 (1-6)) across 8 dose levels: 133 (3 pts), 266 (3 pts), 532 (3 pts), 1000 (3 pts), 2000 (3 pts), 3000 (3 pts), 4500 (4 pts) and 3750 mcg/m^2/wk (10 pts). 2 out of 3 evaluable patients had DLT at 4500 mcg/m^2/wk: grade (G) 4 reversible neuromuscular toxicity (biopsy prevent type II muscular atrophy) and G4 CK increase (1 pt), and transient G3 transaminitis (1 pt). Other toxicities included G 1-2 malaise (most patients treated at ≧3000 mcg/m^2/wk), muscle cramps, G 1-2 emesis (responsive to antiemetics) and injection site reaction (very common and concentration-dependent). All patients have been sampled for PK analysis by a LC/MS/MS method. Pharmacokinetics are linear and the profiles fit a 2 compartment open model. […] Maintained plasma levels >1 ng/ml (active in vitro) were obtained at doses ≧3000 mcg/m^2. […] Four additional patients had minor responses or stable disease for >4 months. […] The recommended dose for future trials, 3750 mcg/m^2/wk×3, administered through a central vein catheter, is feasible and associated with mild toxicity.
Plasma aplidine concentrations were determined by liquid chromatography/tandem mass spectography with a limit of quantitation of 0.25 ng/mL and a broad linear range up to 16.00 ng/mL
A total of 15 samples were drawn up to 24 hours after the end of infusion

VEGF promoter = VEGF promoter luciferase reporter in MOLT-4 cells; assay type: cell-based, human; conditions: luciferase after 24 hours vs renilla
Experimental: Cells were transfected with the VEGF promoter (spanning the first 1000 bases upstream the starting site linked to luciferase reporter gene and with a control plasmid containing the renilla reporter gene. Cells were then treated with different concentrations of aplidine and luciferase activity was measured after 24 hours and compared to renilla activity.

[2] = DL V, 2000 mcg/m^2/wk, 3 patients
[3] = DL VI, 3000 mcg/m^2/wk, 3 patients
[4] = DL VII (MTD), 4500 mcg/m^2/wk, 4 patients
[5] = DL VIII (RD), 3750 mcg/m^2/wk, 13 patients

For aplidine, the T/C (gastric tumours) is listed as 14%, the “evaluable patients with DLT” value ([1]; 4500 mcg/m^2/wk) is listed as 2 out of 3 and the “Recommended Dose” value ([1]; 24 h infusion weekly x3 q4wk) is listed as 3750 μg/m^2/wk×3. The “Inj. Site reaction G2 (worst toxicity per patient)” value ([1]; DL II, 266 mcg/m^2/wk, 3 patients) was 1, the “Asthenia G2 (worst toxicity per patient)” value ([1]; DL III, 532 mcg/m^2/wk, 3 patients) was 1 and the “Inj. Site reaction G2 (worst toxicity per patient)” value ([1]; DL IV, 1000 mcg/m^2/wk, 3 patients) was 1. For the same substance, the “Inj. Site reaction G2 (worst toxicity per patient)” value [1, 2] was 1, the “Nausea G2 (worst toxicity per patient)” value [1, 2] was 1 and the “Asthenia G2 (worst toxicity per patient)” value [1, 3] was 1. The “Asthenia G3 (worst toxicity per patient)” value [1, 3] was 1, the “Inj. Site reaction G2 (worst toxicity per patient)” value [1, 3] was 1 and the “Nausea G3 (worst toxicity per patient)” value [1, 3] was 1. The “Asthenia G2 (worst toxicity per patient)” value [1, 4] was 1, the “CPK elevation G4 (worst toxicity per patient)” value [1, 4] was 1 and the “Inj. Site reaction G2 (worst toxicity per patient)” value [1, 4] was 1. The “Myositis G3 (worst toxicity per patient)” value [1, 4] was 1, the “Transaminitis G3 (worst toxicity per patient)” value [1, 4] was 1 and the “Asthenia G2 (worst toxicity per patient)” value [1, 5] was 3. For the same substance, the “Hypersensitivity G3 (worst toxicity per patient)” value [1, 5] was 1, the “Inj. Site reaction G2 (worst toxicity per patient)” value [1, 5] was 3 and the “Nausea G2 (worst toxicity per patient)” value [1, 5] was 2. For the same substance, the “Transaminitis G3 (worst toxicity per patient)” value [1, 5] was 2, the “Transaminitis G4 (worst toxicity per patient)” value [1, 5] was 1 and the plasma levels ([1]; DLs 1000 and 2000 mcg/m^2/w) was about 1 ng/mL. For the same substance, the “dose limiting toxicities (DLTs)” value ([1]; Example 3: 16 patients, 133-3000 mcg/m^2/wk x3) was “No dose limiting toxicities”, the “Maximum Tolerated Dose” value ([1]; Example 4) was 4500 μg/m^2/wk×3 and the “elimination t ½” value ([1]; Example 4, preliminary data) was 10 to 24 h. The plasma levels ([1]; Example 4, preliminary data) was over 1 ng/mL, the MTD ([1]; Example 11) was 4500 mcg/m^2/wk and the “recommended dose for future trials” value ([1]; Example 11, central vein catheter) was 3750 mcg/m^2/wk×3. For the same substance, the MTD ([1]; Example 12) was 4500 mcg/m^2/week×3, the haematological toxicity ([1]; Example 12) was “No haematological toxicity” and the “recommended dose for future trials” value ([1]; Example 12) was 3750 mcg/m^2/week×3. The maintained plasma levels ([1]; doses ≧3000 mcg/m^2) was over 1 ng/mL, the “Blood cell accumulation as compared to plasma” value ([1]; in vivo) was 2-8 fold and the “dose from which potentially active plasma levels are reached” value ([1]; in vivo) was at least 2000 mcg/m^2. For the same substance, the “coefficient of variation of clearance (Cl)” value ([1]; interpatient variability) was 45%, the Vss ([1]; median (quartiles)) was 611 L and 611 (434-733) L and the “clearance (Cl)” value ([1]; median (quartiles)) was 0.47 L/min and 0.47 (0.40-0.56) L/min. The “elimination t ½” value ([1]; median (quartiles)) was 18.8 h and 18.8 (15.3-25.4) h and the “activity of transfected VEGF promoter, in words” value (VEGF promoter) was “dose not decrease the activity of VEGF promoter; also recorded: did not decrease the transcription of VEGF”.
